Patent publication US8846704B2, “Thiopyrimidine-based compounds and uses thereof” (YM Biosciences Austraila Pty Ltd, priority 2007, dated 2014)

Legend:
Assay type in all cases: biochemical
[1] = biological target: T1, Blk(m) (Mus musculus, UniProt P16277); experiment: Upstate KinaseProfiler enzyme assay, Blk; details: 500 nM compound; read-out: Percent inhibition at 500 nM Blk(m)
T1 construct: purchased Upstate Biotechnology (Dundee, UK), KinaseProfiler service
Experimental: (§1) Further enzyme assays were conducted at Upstate Biotechnology (Dundee, UK) in the KinaseProfiler™ Assay system.
(§2) The general protocol is as follows. All kinases are pre-diluted to a 10× working concentration prior to addition into the assay. The composition of the dilution buffer for the kinases is 20 mM MOPS pH 7.0, 1 mM EDTA, 0.1% β-mercaptoethanol, 0.01% Brij-35, 5% glycerol, 1 mg/ml BSA. All substrates are dissolved and diluted to working stocks in de-ionised water.

[2] = biological target: T2, KDR(h) (Homo sapiens, UniProt P35968); experiment: Upstate KinaseProfiler enzyme assay, KDR; details: 500 nM compound; read-out: Percent inhibition at 500 nM KDR(h)
T2 construct: purchased Upstate Biotechnology (Dundee, UK), KinaseProfiler service
T2 sequence (P35968 20-1356): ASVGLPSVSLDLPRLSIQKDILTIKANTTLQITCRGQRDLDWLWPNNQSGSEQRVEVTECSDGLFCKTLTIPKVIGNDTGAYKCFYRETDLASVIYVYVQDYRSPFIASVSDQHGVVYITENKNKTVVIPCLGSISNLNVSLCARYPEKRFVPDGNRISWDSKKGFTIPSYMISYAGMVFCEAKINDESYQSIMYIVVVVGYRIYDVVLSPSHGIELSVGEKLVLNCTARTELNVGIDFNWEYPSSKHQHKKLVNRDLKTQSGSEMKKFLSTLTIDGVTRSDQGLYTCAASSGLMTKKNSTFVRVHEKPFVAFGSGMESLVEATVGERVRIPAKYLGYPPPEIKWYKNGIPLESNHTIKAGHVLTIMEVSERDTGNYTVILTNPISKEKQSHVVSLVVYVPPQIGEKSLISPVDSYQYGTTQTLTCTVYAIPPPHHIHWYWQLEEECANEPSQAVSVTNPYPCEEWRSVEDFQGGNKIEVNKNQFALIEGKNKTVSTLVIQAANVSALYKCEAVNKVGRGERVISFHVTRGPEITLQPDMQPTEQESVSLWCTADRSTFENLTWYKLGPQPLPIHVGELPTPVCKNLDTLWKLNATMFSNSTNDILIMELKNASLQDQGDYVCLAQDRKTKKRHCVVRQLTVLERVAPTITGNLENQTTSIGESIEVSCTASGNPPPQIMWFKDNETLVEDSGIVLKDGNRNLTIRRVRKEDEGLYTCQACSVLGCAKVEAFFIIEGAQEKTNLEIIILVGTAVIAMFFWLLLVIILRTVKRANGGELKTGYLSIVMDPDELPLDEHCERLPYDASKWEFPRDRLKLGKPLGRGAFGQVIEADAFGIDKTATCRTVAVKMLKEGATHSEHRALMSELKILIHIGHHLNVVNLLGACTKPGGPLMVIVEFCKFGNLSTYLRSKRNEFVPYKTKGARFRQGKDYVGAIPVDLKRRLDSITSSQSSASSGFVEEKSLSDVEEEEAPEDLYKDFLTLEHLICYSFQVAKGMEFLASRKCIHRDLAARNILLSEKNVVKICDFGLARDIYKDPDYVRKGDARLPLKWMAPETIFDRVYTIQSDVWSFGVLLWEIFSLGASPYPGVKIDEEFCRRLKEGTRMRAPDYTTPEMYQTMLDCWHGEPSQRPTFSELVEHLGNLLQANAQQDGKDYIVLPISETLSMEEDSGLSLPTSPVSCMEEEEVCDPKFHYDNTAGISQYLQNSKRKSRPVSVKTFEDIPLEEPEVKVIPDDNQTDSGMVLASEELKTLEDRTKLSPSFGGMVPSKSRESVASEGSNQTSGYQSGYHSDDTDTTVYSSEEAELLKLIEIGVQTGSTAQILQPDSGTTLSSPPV
Experimental: as §1, §2

[3] = biological target: T3, Flt 4(h) (Homo sapiens, UniProt P35916); experiment: Upstate KinaseProfiler enzyme assay, Flt 4; details: 500 nM compound; read-out: Percent inhibition at 500 nM Flt 4(h)
T3 construct: purchased Upstate Biotechnology (Dundee, UK), KinaseProfiler service
T3 sequence (P35916 25-1363): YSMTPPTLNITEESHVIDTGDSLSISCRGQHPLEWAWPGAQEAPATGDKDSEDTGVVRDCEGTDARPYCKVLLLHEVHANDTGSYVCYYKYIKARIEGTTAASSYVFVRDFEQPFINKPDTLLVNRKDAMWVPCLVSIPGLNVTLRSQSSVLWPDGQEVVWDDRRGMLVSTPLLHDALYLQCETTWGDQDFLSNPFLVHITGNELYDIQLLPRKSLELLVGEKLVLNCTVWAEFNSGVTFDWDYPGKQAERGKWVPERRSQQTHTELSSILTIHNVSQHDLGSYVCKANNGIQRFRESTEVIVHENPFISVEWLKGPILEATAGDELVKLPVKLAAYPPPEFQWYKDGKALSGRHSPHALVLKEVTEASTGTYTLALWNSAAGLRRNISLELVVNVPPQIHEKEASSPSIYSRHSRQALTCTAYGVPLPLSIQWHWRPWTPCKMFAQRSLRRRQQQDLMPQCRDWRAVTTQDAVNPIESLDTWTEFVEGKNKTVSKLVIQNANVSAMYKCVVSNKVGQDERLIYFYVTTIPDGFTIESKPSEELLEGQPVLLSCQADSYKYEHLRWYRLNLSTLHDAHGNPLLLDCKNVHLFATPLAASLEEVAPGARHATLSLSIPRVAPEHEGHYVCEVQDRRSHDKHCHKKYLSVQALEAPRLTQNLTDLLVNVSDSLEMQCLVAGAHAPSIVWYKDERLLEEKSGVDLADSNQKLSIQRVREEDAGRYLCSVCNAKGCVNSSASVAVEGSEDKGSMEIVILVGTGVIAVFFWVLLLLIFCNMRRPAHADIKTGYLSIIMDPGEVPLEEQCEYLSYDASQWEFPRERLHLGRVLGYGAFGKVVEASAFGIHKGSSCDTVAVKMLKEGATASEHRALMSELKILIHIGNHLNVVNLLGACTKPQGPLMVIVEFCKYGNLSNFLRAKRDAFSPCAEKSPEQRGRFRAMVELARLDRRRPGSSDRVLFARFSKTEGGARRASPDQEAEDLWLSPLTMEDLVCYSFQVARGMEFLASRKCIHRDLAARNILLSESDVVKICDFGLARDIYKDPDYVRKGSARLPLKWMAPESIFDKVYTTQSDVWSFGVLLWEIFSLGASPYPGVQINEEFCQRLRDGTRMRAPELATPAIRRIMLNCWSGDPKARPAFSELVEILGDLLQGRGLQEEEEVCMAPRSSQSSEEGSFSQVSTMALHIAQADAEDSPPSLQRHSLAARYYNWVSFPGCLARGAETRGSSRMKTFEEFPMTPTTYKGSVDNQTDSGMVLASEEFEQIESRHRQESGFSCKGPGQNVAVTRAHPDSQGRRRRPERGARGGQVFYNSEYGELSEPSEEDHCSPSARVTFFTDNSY
Experimental: as §1, §2

[4] = biological target: T4, Flt 1(h) (Homo sapiens, UniProt P17948); experiment: Upstate KinaseProfiler enzyme assay, Flt 1; details: 500 nM compound; read-out: Percent inhibition at 500 nM Flt 1(h)
T4 construct: purchased Upstate Biotechnology (Dundee, UK), KinaseProfiler service
T4 sequence (P17948 27-1338): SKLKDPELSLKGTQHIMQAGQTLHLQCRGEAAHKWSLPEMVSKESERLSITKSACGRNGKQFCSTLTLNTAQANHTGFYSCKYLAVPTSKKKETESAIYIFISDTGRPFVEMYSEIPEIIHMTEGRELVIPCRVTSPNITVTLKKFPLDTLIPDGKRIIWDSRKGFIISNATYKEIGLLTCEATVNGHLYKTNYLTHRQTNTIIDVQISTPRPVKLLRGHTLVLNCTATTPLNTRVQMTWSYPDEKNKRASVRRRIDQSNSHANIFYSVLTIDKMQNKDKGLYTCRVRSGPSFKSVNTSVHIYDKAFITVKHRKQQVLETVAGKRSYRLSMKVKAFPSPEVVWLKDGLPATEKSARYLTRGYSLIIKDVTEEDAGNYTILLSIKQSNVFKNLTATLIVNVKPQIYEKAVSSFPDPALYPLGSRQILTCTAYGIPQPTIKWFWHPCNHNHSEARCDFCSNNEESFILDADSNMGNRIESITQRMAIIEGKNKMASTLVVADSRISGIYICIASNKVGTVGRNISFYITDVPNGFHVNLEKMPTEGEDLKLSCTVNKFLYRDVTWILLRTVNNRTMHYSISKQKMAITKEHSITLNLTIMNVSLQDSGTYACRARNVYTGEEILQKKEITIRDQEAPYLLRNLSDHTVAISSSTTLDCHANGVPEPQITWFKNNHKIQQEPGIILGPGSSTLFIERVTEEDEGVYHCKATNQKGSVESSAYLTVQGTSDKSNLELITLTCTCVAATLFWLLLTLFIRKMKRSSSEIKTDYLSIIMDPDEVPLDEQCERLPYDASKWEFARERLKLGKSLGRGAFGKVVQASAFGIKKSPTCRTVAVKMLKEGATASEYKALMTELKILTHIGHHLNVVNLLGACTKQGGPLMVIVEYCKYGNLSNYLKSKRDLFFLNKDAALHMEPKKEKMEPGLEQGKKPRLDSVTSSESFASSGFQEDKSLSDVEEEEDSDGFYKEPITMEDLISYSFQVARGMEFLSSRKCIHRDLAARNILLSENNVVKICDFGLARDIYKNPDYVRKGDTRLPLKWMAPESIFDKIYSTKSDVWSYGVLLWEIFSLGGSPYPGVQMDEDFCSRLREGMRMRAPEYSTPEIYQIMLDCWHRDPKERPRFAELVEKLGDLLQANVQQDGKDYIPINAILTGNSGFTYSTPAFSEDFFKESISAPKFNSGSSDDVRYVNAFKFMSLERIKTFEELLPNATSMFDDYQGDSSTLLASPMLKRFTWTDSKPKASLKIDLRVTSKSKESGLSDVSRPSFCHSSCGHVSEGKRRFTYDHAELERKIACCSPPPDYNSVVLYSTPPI
Experimental: as §1, §2

[5] = biological target: T5, human JAK3 (Homo sapiens, UniProt P52333); experiment: Alphascreen tyrosine kinase enzyme assay, JAK3 kinase domain; details: read-out: JAK3 IC50_nM
T5 construct: The kinase domain of human JAK3 was amplified; GST (N); made in house; host or cells: Sf9 insect cells (baculovirus)
T5 sequence (P52333 822-1111 limits assumed): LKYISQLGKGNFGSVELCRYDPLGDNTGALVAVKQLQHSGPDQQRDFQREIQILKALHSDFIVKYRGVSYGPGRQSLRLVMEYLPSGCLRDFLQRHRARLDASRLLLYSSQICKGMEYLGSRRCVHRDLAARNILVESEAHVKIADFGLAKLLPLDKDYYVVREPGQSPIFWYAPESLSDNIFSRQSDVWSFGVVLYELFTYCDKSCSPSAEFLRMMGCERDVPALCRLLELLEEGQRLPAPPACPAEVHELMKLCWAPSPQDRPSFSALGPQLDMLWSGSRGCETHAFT
Experimental: (§3) For screening purposes, compounds (in 100% DMSO) were warmed at 37 degrees for at least 20 minutes before use. A […] stock was initially made in assay buffer, where the final concentration of DMSO was 0.3%. The stocks were then diluted in 384 well Optiplates (Packard) where the final concentration of the compound was […].
The kinase domain of human JAK3 was amplified from U937mRNA using the polymerase chain reaction with the following primers: […]
The JAK3 PCR products were cloned into the pDest20 destination expression vector (Gibco). The JAK3 plasmid was then transformed into competent DH10Bac cells (Gibco), and the recombinant baculovirus was prepared via Sf9 insect cell transfection.
(§4) Baculovirus preparations from each of the constructs were infected into either one or five liters of Sf9 cells (Invitrogen) grown in SF-900 medium (Invitrogen) to a cell density of approximately 1-2×10^6 cells/ml. Cells were infected with virus at a MOI of 0.8-3.0. Cells were harvested and lysed. Tyrosine kinase domains were purified by affinity chromatography on a glutathione-agarose column (Scientifix Pty. Ltd. catalog #: GSH-200).
(§5) Kinase assays were performed in 384 well Optiplates (Packard) using an Alphascreen Protein Tyrosine Kinase PY100 detection kit The compounds were pre-incubated with affinity purified PTK domain in the presence of phosphotyrosine assay buffer (10 mM HEPES, pH 7.5, 100 mM MgCl2, 25 mM NaCl, […] and 0.1% Tween 20) for 20 minutes. The compounds were then incubated with substrate in the presence of ATP. The substrate used was susbtrate-1 with the sequence biotin-EGPWLEEEEEAYGWMDF-NH2 [SEQ. ID. NO. 13] (final concentration […]). For HCK 80 μm ATP was used and incubated for 60 minutes. Alphascreen phosphotyrosine acceptor beads followed by streptavidin donor beads at a concentration of 1/100 in stop buffer were added to each well under subdued light and incubated for 2-3 hours., The Alphascreen plates were read on a Packard Fusion Alpha instrument.

[6] = biological target: T6, Bmx(h) (Homo sapiens, UniProt P51813); experiment: Upstate KinaseProfiler enzyme assay, Bmx; details: 500 nM compound; read-out: Percent inhibition at 500 nM Bmx(h)
T6 construct: purchased Upstate Biotechnology (Dundee, UK), KinaseProfiler service
T6 sequence (P51813 1-675): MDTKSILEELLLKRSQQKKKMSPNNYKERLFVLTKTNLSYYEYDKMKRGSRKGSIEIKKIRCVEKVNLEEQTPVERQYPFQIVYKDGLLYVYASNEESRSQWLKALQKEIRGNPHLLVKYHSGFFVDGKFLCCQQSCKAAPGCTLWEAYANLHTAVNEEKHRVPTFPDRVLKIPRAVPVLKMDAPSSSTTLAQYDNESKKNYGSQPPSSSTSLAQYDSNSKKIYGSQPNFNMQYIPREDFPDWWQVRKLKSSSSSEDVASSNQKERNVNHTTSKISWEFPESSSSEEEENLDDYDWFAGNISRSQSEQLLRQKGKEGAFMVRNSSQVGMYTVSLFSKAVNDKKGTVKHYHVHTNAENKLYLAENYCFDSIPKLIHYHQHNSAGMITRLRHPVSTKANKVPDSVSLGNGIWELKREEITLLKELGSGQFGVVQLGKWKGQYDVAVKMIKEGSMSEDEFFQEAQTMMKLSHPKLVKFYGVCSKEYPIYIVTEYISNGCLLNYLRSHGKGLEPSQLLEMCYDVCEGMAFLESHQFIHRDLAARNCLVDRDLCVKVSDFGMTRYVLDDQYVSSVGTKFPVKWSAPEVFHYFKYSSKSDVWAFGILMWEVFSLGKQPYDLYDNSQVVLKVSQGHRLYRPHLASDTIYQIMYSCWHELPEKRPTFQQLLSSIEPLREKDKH
Experimental: as §1, §2

[7] = biological target: T7, human JAK2 (Homo sapiens, UniProt O60674); experiment: Alphascreen tyrosine kinase enzyme assay, JAK2 kinase domain; details: read-out: JAK2 IC50_nM
T7 construct: The kinase domain of human JAK2 was amplified; GST (N); made in house; host or cells: Sf9 insect cells (baculovirus)
T7 sequence (O60674 849-1124 limits assumed): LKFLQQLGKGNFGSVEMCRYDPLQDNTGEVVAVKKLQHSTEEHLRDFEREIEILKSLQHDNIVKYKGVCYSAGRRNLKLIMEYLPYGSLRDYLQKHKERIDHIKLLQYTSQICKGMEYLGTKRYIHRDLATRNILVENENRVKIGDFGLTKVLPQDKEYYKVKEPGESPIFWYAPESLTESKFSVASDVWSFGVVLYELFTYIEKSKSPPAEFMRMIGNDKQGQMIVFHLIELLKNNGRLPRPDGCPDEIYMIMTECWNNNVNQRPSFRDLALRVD
Experimental: as §3
The kinase domain of human JAK2 was amplified from U937mRNA using the polymerase chain reaction with the following primers: […]
The JAK2 PCR products were cloned into the pDest20 destination vector (Gibco). The JAK2 plasmid was then transformed into competent DH10Bac cells (Gibco), and the recombinant baculovirus was prepared via Sf9 insect cell transfection.
as §4, §5

[8] = biological target: T8, BTK(h) (Homo sapiens, UniProt Q06187); experiment: Upstate KinaseProfiler enzyme assay, BTK; details: 500 nM compound; read-out: Percent inhibition at 500 nM BTK(h)
T8 construct: purchased Upstate Biotechnology (Dundee, UK), KinaseProfiler service
Experimental: as §1, §2

[9] = biological target: T9, Human hemopoietic cell protein-tyrosine kinase (HCK) (Homo sapiens, UniProt P08631); experiment: Alphascreen tyrosine kinase enzyme assay, HCK kinase domain; details: read-out: FMS, FLT3, or HCK IC50_nM (HCK)
T9 construct: GST (N); made in house; host or cells: Sf9 insect cells (baculovirus)
Experimental: as §3
The kinase domain of Human hemopoietic cell protein-tyrosine kinase (HCK) between L212 and P505 (accession number M16592) was amplified from U937 mRNA using the polymerase chain reaction.
The PCR product was cloned into the pDest20 destination vector (Gibco). The plasmid was then transformed into competent […] cells (Gibco) to produce a HCK bacmid. The recombinant baculovirus was prepared via Sf9 insect cell transfection with bacmid DNA.
as §4, with “GSH-200). […]” for “GSH-200).”

[10] = biological target: T10, human CSF1-R (FMS) (Homo sapiens, UniProt P07333); experiment: Alphascreen tyrosine kinase enzyme assay, CSF-1R (FMS) kinase domain; details: read-out: FMS, FLT3, or HCK IC50_nM (FMS)
T10 construct: from codon I553 to Q961; GST (N); made in house; host or cells: Sf9 insect cells (baculovirus)
T10 sequence (P07333 553-961): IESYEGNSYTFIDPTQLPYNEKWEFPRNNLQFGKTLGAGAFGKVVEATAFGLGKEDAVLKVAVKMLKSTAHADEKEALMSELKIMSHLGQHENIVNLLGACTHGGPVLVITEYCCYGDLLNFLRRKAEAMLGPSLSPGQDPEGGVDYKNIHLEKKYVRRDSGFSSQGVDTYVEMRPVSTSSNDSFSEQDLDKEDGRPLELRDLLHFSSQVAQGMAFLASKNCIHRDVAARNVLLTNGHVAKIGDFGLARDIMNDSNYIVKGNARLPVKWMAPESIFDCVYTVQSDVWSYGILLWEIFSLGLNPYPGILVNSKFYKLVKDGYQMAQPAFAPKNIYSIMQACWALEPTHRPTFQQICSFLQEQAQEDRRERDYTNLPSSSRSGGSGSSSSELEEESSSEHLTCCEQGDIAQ
Experimental: as §3
The kinase domain of human CSF1-R from codon I553 to Q961 was cloned into the pDest20 expression vector (Invitrogen). The CSF1-R plasmid was then transformed into competent DH10Bac cells (Gibco), and the recombinant baculovirus produced prepared for transfection into Sf9 insect cells.
as §4, §5

T1 sequence (P16277 whole entry): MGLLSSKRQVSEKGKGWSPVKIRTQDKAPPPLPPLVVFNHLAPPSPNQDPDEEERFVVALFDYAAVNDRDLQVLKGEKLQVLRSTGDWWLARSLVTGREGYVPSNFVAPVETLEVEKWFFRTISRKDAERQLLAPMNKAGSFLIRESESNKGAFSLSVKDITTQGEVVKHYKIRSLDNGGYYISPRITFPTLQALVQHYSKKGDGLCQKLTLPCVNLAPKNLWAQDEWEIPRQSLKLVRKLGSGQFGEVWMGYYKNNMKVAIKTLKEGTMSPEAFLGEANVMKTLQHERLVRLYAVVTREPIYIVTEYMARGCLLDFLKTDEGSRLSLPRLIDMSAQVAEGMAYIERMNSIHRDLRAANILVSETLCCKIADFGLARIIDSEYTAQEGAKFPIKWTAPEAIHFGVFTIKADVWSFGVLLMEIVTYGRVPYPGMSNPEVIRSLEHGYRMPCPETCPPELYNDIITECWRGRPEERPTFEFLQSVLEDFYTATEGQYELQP

SMILES | inhibition at 0.5 µM [1] [%] | inhibition at 0.5 µM [2] [%] | inhibition at 0.5 µM [3] [%] | inhibition at 0.5 µM [4] [%] | IC50 [5] [µM] | inhibition at 0.5 µM [6] [%] | IC50 [7] [µM] | inhibition at 0.5 µM [8] [%] | IC50 [9] [µM] | IC50 [10] [µM]
C=CC(=O)Nc1cccc(Sc2ccnc(Nc3cc(OC)c(OC)c(OC)c3)n2)c1 [Compound 51, N-(3-(2-(3,4,5-trimethoxyphenylamino)pyrimidin-4-ylthio)phenyl)acrylamide] | 29 | 100 |  |  |  | 100 |  | 100 |  | 
C=C(C)C(=O)Nc1cccc(Sc2ccnc(Nc3ccc(N4CCOCC4)cc3)n2)c1 [Compound 115, N-(3-(2-(4-morpholinophenylao)pyrimidin-4-ylthio)phenyl)methacrylamide] | 100 | 100 |  |  |  | 100 |  | 100 |  | 
Oc1cccc(Sc2ccnc(Nc3ccc(N4CCOCC4)cc3)n2)c1 [Compound 38, 3-(2-(4-morpholinophenylao)pyrimidin-4-ylthio)phenol] |  |  |  |  |  |  |  |  | < 0.5 | < 0.5

Other lines, results leading:

inhibition at 0.5 µM [1] [%] | inhibition at 0.5 µM [2] [%] | inhibition at 0.5 µM [3] [%] | inhibition at 0.5 µM [4] [%] | IC50 [5] [µM] | inhibition at 0.5 µM [6] [%] | IC50 [7] [µM] | inhibition at 0.5 µM [8] [%] | IC50 [9] [µM] | IC50 [10] [µM] | SMILES
98 | 96 | 99 | 66 | < 0.1 | 92 | > 1 |  |  |  | C=CC(=O)N1CCCc2cc(Sc3nc(Nc4ccc(N5CCOCC5)cc4)ncc3C)ccc21 [Compound 168, 1-(6-(5-methyl-2-(4-morpholinophenylao)pyrimidin-4-ylthio)-3,4-dihydroquinolin-1(2H)-yl)prop-2-en-1-one]
96 | 97 | 99 | 74 | < 0.1 | 97 | > 1 |  |  |  | C=CC(=O)N1CCc2cc(Sc3nc(Nc4ccc(N5CCOCC5)cc4)ncc3C)ccc21 [Compound 170, 1-(5-(5-methyl-2-(4-morpholinophenylao)pyrimidin-4-ylthio)indolin-1-yl)prop-2-en-1-one]
